Assay [1] addresses T1, HDAC6 (Homo sapiens, UniProt Q9UBN7).
T1 sequence (Q9UBN7 1-1215): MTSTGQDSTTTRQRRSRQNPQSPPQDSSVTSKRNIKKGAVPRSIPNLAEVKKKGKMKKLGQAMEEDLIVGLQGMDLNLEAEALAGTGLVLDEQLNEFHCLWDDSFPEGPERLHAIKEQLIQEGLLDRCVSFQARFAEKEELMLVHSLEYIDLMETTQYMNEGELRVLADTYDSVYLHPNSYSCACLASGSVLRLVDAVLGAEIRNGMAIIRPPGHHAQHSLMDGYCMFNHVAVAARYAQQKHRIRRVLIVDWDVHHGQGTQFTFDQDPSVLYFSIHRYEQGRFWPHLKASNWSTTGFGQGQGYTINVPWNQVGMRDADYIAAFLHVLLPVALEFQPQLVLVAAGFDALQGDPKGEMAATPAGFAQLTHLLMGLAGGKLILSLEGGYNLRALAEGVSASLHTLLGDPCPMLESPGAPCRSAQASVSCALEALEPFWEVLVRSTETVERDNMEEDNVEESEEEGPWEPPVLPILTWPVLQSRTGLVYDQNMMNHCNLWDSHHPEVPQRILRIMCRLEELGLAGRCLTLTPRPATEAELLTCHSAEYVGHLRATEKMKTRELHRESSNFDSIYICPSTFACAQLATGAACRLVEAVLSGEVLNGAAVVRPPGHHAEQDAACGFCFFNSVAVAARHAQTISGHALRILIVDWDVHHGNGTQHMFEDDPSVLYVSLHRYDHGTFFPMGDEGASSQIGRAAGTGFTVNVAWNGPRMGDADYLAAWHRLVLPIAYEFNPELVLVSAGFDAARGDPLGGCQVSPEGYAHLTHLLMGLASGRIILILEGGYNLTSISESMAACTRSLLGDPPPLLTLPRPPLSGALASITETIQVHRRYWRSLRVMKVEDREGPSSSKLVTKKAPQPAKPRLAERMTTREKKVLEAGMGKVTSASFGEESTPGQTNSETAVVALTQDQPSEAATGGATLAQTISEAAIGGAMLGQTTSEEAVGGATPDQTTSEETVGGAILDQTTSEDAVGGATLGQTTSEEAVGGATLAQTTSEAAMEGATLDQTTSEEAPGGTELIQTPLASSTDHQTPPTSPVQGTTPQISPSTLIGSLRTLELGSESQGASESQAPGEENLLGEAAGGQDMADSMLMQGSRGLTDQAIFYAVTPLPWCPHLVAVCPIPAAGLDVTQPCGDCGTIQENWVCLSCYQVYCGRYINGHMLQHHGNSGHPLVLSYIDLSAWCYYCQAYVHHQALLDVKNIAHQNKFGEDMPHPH
Put plainly: HDAC6 enzyme inhibition assay (fluorimetric). The class given is biochemical. The settings on record: 1 μM compound; 3 h pre-incubation; recombinant full length HDAC6; read-out: HDAC6 % inh @ 1 μM. The method, then: (§1) HDAC6 and HDAC2 Enzyme Inhibition Assay
(§2) A fluorimetric assay was used for testing the activity of compounds of the invention against HDAC6 and HDAC2.
(§3) The compounds were dissolved in DMSO. Serial dilutions were prepared in DMSO and then diluted 1:10 in HDAC assay buffer (Tris-buffered solution, BPS Bioscience Inc. #50031). 5 μl of the compound dilution was added to a 50 μl reaction so that the final concentration of DMSO was 1%.
(§4) The compounds were pre-incubated in duplicate at RT for 3 hours in a mixture containing HDAC assay buffer, 5 μg BSA and recombinant HDAC enzyme (see table above). The enzymatic reactions were initiated by the addition of a fluorogenic, acetylated peptide substrate based on a histone protein (BPS Bioscience Inc. #50037) to a final concentration of 10 μM. The enzymatic reaction proceeded for 30 minutes at 37° C. Then, 50 μl of 2× HDAC Developer, which contains peptidase activity and Trichostatin A (BPS Bioscience Inc. #50030) was added and the plate was incubated at RT for an additional 15 minutes. Fluorescence intensity was measured at an excitation of 360 nm and an emission of 460 nm using a Tecan Infinite M1000 microplate reader.
(§5) Trichostatin A (TSA, Selleckchem #S1045) was used as reference inhibitor.
(§6) The fluorescent intensity data were analyzed using the computer software Graphpad Prism (GraphPad Software, San Diego, CA). 100% activity was defined as the fluorescent intensity (Ft) in the absence of the compound. 0% activity was defined as the fluorescent intensity (Fb) in the absence of the enzyme. The percent activity in the presence of each compound was calculated according to the following equation: % activity=(F−Fb)/(Ft−Fb), where F=the fluorescent intensity in the presence of the compound.

The target of a further assay is T2, HDAC2 (Homo sapiens, UniProt Q92769).
T2 construct: (full length with C-terminal His-tag); His (C); purchased BPS Bioscience Inc. 50002
Put plainly: HDAC2 enzyme inhibition assay (fluorimetric). It counts as biochemical. The conditions noted are these: 1 μM compound; 3 h pre-incubation; recombinant full length HDAC2; read-out: HDAC2 % inh @ 1 μM. The method, then: as §1, §2, §3, §4, §5, §6

Assay [2] concerns the target T1, HDAC6. Put plainly: In vitro cell-based assay: acetylation levels of Alpha-Tubulin by Western Blot in MOLP8 cells. More on the design: endogenous in cells; host or cells: MOLP8. The conditions noted are these: 18 h, acetyl-alpha-tubulin relative band intensity, ACY-1215 1 μM = 100%. Summed up: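 MOLP8 cells treated with compounds at 5 and 1 μM for 18 h at 37° C.; acetyl-alpha-tubulin measured by Western blot of RIPA extracts (7 μg protein). Bands normalized to total protein or beta-actin, expressed relative to ACY-1215 1 μM (100%), then classed.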

We go through 14 molecules from patent US12668591B2, “1,2,4-oxadiazole derivatives as histone deacetylase 6 inhibitors” (Oryzon Genomics, S.A., priority 2017, dated 2026).

T2 sequence (Q92769 whole entry): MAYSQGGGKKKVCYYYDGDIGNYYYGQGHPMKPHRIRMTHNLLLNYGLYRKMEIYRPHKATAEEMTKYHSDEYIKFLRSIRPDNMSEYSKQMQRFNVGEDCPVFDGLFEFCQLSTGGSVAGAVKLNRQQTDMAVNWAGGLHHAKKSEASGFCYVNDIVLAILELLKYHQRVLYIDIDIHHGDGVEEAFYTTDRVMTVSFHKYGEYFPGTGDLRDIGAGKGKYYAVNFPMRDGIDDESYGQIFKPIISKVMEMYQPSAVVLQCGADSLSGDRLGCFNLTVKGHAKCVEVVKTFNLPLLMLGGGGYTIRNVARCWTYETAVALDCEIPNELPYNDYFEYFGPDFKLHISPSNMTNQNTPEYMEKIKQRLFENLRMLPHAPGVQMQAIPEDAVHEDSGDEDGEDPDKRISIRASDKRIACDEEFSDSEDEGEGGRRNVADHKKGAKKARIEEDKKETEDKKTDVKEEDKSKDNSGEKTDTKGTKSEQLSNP

As to `CCCCn1cc(C2=CCN(C)CC2)c2cc(-c3cc(-c4noc(C(F)(F)F)n4)ccn3)ncc21` [Example 1aq, 3-(2-(1-Butyl-3-(1-methyl-1,2,3,6-tetrahydropyridin-4-yl)-1H-pyrrolo[2,3-c]pyridin-5-yl)pyridin-4-yl)-5-(trifluoromethyl)-1,2,4-oxadiazole], the inhibition at 1 µM at HDAC6 [1] was found to be 89%. The inhibition at 1 µM at HDAC2 was determined as 2%. In addition, at HDAC6 [2], the “Cellular activity @1 uM” value is recorded as “++ (150-300)” and the “Cellular activity @5 uM” value is listed as “++ (150-300)”.
With `COCCn1ccc2cnc(-c3cc(-c4noc(C(F)(F)F)n4)ccn3)cc21` [Example 1au, 3-(2-(1-(2-Methoxyethyl)-1H-pyrrolo[3,2-c]pyridin-6-yl)pyridin-4-yl)-5-(trifluoromethyl)-1,2,4-oxadiazole], on HDAC6 [1], the inhibition at 1 µM came out at 85%. The inhibition at 1 µM at HDAC2 came out at 19%. At HDAC6 [2], the “Cellular activity @1 uM” value is on record as “+ (50-150)” and the “Cellular activity @5 uM” value is “++ (150-300)”.
The corresponding values for `FC(F)(F)c1nc(-c2ccnc(-c3cc4c(ccn4Cc4ccccn4)cn3)c2)no1` [Example 1aw, 3-(2-(1-(Pyridin-2-ylmethyl)-1H-pyrrolo[3,2-c]pyridin-6-yl)pyridin-4-yl)-5-(trifluoromethyl)-1,2,4-oxadiazole] are 81%, 15%, “+ (50-150)” and “++ (150-300)”.
Regarding `CCN(CC)CCCOc1ccc(-c2cc(-c3noc(C(F)(F)F)n3)ccn2)nc1` [Example 1c, N,N-Diethyl-3-((4′-(5-(trifluoromethyl)-1,2,4-oxadiazol-3-yl)-[2,2′-bipyridin]-5-yl)oxy)propan-1-amine], the inhibition at 1 µM on HDAC6 [1] turned out to be 89%. For the same molecule, the inhibition at 1 µM on HDAC2 was found to be 3%. Moreover, on HDAC6 [2], the “Cellular activity @1 uM” value is reported as “+ (50-150)” and the “Cellular activity @5 uM” value is reported as “++ (150-300)”.
Regarding `FC(F)(F)c1nc(-c2ccnc(-c3ccc(OCCCN4CCOCC4)cn3)c2)no1` [Example 1e, 4-(3-((4′-(5-(Trifluoromethyl)-1,2,4-oxadiazol-3-yl)-[2,2′-bipyridin]-5-yl)oxy)propyl)morpholine], on HDAC6 [1], the inhibition at 1 µM is 84%. For the same molecule, at HDAC2, the inhibition at 1 µM came out at 9%. Further, on HDAC6 [2], the “Cellular activity @1 uM” value is “+ (50-150)” and the “Cellular activity @5 uM” value was “++ (150-300)”.
Turning to `FC1(F)CCN(CCCOc2ccc(-c3cc(-c4noc(C(F)(F)F)n4)ccn3)nc2)CC1` [Example 1f, 3-(5′-(3-(4,4-Difluoropiperidin-1-yl)propoxy)-[2,2′-bipyridin]-4-yl)-5-(trifluoromethyl)-1,2,4-oxadiazole], at HDAC6 [1], the inhibition at 1 µM was found to be 71%. Also, the inhibition at 1 µM on HDAC2 came out at 16%. On HDAC6 [2], the “Cellular activity @1 uM” value is given as “− (<50)” and the “Cellular activity @5 uM” value is listed as “++ (150-300)”.
Take `CCCn1cc(CN2CCCCC2)c2cc(-c3cc(-c4noc(C(F)(F)F)n4)ccn3)ncc21` [Example 1g, 3-(2-(3-(Piperidin-1-ylmethyl)-1-propyl-1H-pyrrolo[2,3-c]pyridin-5-yl)pyridin-4-yl)-5-(trifluoromethyl)-1,2,4-oxadiazole]: the inhibition at 1 µM at HDAC6 [1] came to 96%. In addition, on HDAC2, the inhibition at 1 µM worked out at 38%. Further, on HDAC6 [2], the “Cellular activity @1 uM” value is recorded as “+ (50-150)” and the “Cellular activity @5 uM” value is on record as “+++ (>300)”.
Turning to `CN(CC1CC1)c1ccc(-c2cc(-c3noc(C(F)(F)F)n3)ccn2)nc1` [Example 1j, N-(Cyclopropylmethyl)-N-methyl-4′-(5-(trifluoromethyl)-1,2,4-oxadiazol-3-yl)-[2,2′-bipyridin]-5-amine], the inhibition at 1 µM at HDAC6 [1] is 69%. Moreover, the inhibition at 1 µM on HDAC2 came out at 10%. In addition, at HDAC6 [2], the “Cellular activity @1 uM” value is reported as “− (<50)” and the “Cellular activity @5 uM” value is “++ (150-300)”.
For the molecule `CCN(CC)CCCNc1ccc(-c2cc(-c3noc(C(F)(F)F)n3)ccn2)nc1` [Example 1k, N^1,N^1-Diethyl-N^3-(4′-(5-(trifluoromethyl)-1,2,4-oxadiazol-3-yl)-[2,2′-bipyridin]-5-yl)propane-1,3-diamine], at HDAC6 [1], the inhibition at 1 µM was 95%. The inhibition at 1 µM on HDAC2 came to 27%. In addition, on HDAC6 [2], the “Cellular activity @1 uM” value is given as “+ (50-150)” and the “Cellular activity @5 uM” value is reported as “+ (50-150)”.
For `FC(F)(F)c1nc(-c2ccnc(-c3cc4c(ccn4C4CCOCC4)cn3)c2)no1` [Example 1o, 3-(2-(1-(Tetrahydro-2H-pyran-4-yl)-1H-pyrrolo[3,2-c]pyridin-6-yl)pyridin-4-yl)-5-(trifluoromethyl)-1,2,4-oxadiazole], the inhibition at 1 µM at HDAC6 [1] was 97%. In addition, the inhibition at 1 µM on HDAC2 was 23%. Also, at HDAC6 [2], the “Cellular activity @1 uM” value was “++ (150-300)” and the “Cellular activity @5 uM” value is reported as “+++ (>300)”.
As to `O=C(Cc1ccccc1)Nc1ccc(-c2cc(-c3noc(C(F)(F)F)n3)ccn2)nc1` [Example 1q, 2-Phenyl-N-(4′-(5-(trifluoromethyl)-1,2,4-oxadiazol-3-yl)-[2,2′-bipyridin]-5-yl)acetamide], the inhibition at 1 µM on HDAC6 [1] came out at 73%. Further, the inhibition at 1 µM at HDAC2 turned out to be 11%. On HDAC6 [2], the “Cellular activity @1 uM” value is “+ (50-150)” and the “Cellular activity @5 uM” value is “++ (150-300)”.
Turning to `CN(C)C(=O)c1cc2cc(-c3cc(-c4noc(C(F)(F)F)n4)ccn3)ncc2n1C` [Example 1u, N,N,1-Trimethyl-5-(4-(5-(trifluoromethyl)-1,2,4-oxadiazol-3-yl)pyridin-2-yl)-1H-pyrrolo[2,3-c]pyridine-2-carboxamide], at HDAC6 [1], the inhibition at 1 µM came to 98%. Further, at HDAC2, the inhibition at 1 µM amounted to 19%. Also, on HDAC6 [2], the “Cellular activity @1 uM” value was “+++ (>300)” and the “Cellular activity @5 uM” value is “+++ (>300)”.
Turning to `CCCn1cc(-c2cn[nH]c2)c2cc(-c3cc(-c4noc(C(F)(F)F)n4)ccn3)ncc21` [Example 1v, 3-(2-(1-Propyl-3-(1H-pyrazol-4-yl)-1H-pyrrolo[2,3-c]pyridin-5-yl)pyridin-4-yl)-5-(trifluoromethyl)-1,2,4-oxadiazole], the inhibition at 1 µM at HDAC6 [1] was 66%. Further, the inhibition at 1 µM on HDAC2 was 3%. Moreover, on HDAC6 [2], the “Cellular activity @1 uM” value was “+ (50-150)” and the “Cellular activity @5 uM” value is on record as “+++ (>300)”.
Take `CCCCn1c(C(=O)N(CC)CC)cc2cc(-c3cc(-c4noc(C(F)(F)F)n4)ccn3)ncc21` [Example 1w, 1-Butyl-N,N-diethyl-5-(4-(5-(trifluoromethyl)-1,2,4-oxadiazol-3-yl)pyridin-2-yl)-1H-pyrrolo[2,3-c]pyridine-2-carboxamide]: on HDAC6 [1], the inhibition at 1 µM came to 86%. Besides, the inhibition at 1 µM at HDAC2 worked out at 6%. In addition, on HDAC6 [2], the “Cellular activity @1 uM” value is “+ (50-150)” and the “Cellular activity @5 uM” value was “++ (150-300)”.
